For experiment [1], the system named is MV4;11 cells. Briefly: Cell viability assay (CellTiter-Glo) in MV4;11 cells, alone or with gilteritinib. The format is cell-based. Conditions: Homo sapiens, MV4-11, 72 h, read-out: MV4.
In experiment [2] the test system is MOLM-13 cells. Briefly: Cell viability assay (CellTiter-Glo) in MOLM-13 cells, alone or with gilteritinib. It is filed as cell-based. Conditions: Homo sapiens, MOLM-13, 72 h. For orientation: Cellular ATP, detected with luciferase, serves as a proxy for viable cell number.
Setting [3] is: MV4;11 cells, compound alone (without gilteritinib), three days, CellTiter-Glo, 11 IC50.
Where [4] appears, read: MV4;11 cells, with gilteritinib 10 nM, three days, CellTiter-Glo, 11 IC50 gilteritinib.
The mark [5] stands for this setting: MOLM-13 cells, compound alone (without gilteritinib), three days, CellTiter-Glo, read-out: MOLM-13 IC50.
[6] abbreviates: MOLM-13 cells, with gilteritinib 20 nM, three days, CellTiter-Glo, read-out: MOLM-13 IC50 gilteritinib.
Setting [7] is: MV4;11 cells, compound with gilteritinib 10 nM, three days, CellTiter-Glo, 11 IC50 gilteritinib.
Setting [8] is: MOLM-13 cells, compound with gilteritinib 20 nM, three days, CellTiter-Glo, read-out: MOLM-13 IC50 gilteritinib.

The values below come from patent US20240050428A1 (Cullgen (Shanghai), Inc., priority 2020, published 2024).

Read-outs that look alike come from different tables or passages of the source. Where only a bound is given, the exact number is not on record here.

Consider `O=C1CCC(N2C(=O)c3ccc(NC[C@H]4C[C@H](n5cc(-c6nccc7ncccc67)c(C6CC6)n5)C4)cc3C2=O)C(=O)N1` (stereo partly drawn) [GS-281, 5-(((trans-3-(3-Cyclopropyl-4-(1,6-naphthyridin-5-yl)-1H-pyrazol-1-yl)cyclobutyl)methyl)amino)-2-(2,6-dioxopiperidin-3-yl)isoindoline-1,3-dione], for which the IC50 in experiment [1] (setting [3]) was less than 10 nM; in experiment [1] (setting [4]), less than 10 nM; in experiment [2] (setting [5]) it was 10 to 100 nM; in experiment [2] (setting [6]), less than 10 nM.

Consider `CN(C)c1cccc(-c2cn([C@H]3C[C@H](CNc4ccc5c(c4)C(=O)N(C4CCC(=O)NC4=O)C5=O)C3)nc2C2CC2)n1` (stereo partly drawn) [GS-259, 5-(((trans-3-(3-Cyclopropyl-4-(6-(dimethylamino)pyridin-2-yl)-1H-pyrazol-1-yl)cyclobutyl)methyl)amino)-2-(2,6-dioxopiperidin-3-yl)isoindoline-1,3-dione], for which the IC50 was less than 10 nM in experiment [1] (setting [3]), less than 10 nM in experiment [1] (setting [4]), 10 to 100 nM in experiment [2] (setting [5]) and less than 10 nM in experiment [2] (setting [6]).

Turning to `O=C1CCC(N2C(=O)c3ccc(NCCCCCCn4cc(-c5cnc6cccc(C(F)(F)F)c6n5)cn4)cc3C2=O)C(=O)N1` (stereo not shown) [GS-555, 2-(2,6-Dioxopiperidin-3-yl)-5-((6-(4-(8-(trifluoromethyl)quinoxalin-2-yl)-1H-pyrazol-1-yl)hexyl)amino)isoindoline-1,3-dione], the IC50 in experiment [1] (setting [3]) is 100 to 1000 nM; in experiment [1] (setting [7]), 10 to 100 nM; in experiment [2] (setting [5]) it was 100 to 1000 nM; in experiment [2] (setting [8]) it was less than 10 nM.

As for `O=C1CCC(N2C(=O)c3ccc(NC[C@H]4C[C@H](n5cc(-c6cnc7ccc(N8CCOCC8)cc7n6)cn5)C4)cc3C2=O)C(=O)N1` (stereo partly drawn) [GS-191, 2-(2,6-Dioxopiperidin-3-yl)-5-(((trans-3-(4-(7-morpholinoquinoxalin-2-yl)-1H-pyrazol-1-yl)cyclobutyl)methyl)amino)isoindoline-1,3-dione], the IC50 in experiment [1] (setting [3]) was 10 to 100 nM; in experiment [1] (setting [4]), less than 10 nM; in experiment [2] (setting [5]), 10 to 100 nM; in experiment [2] (setting [6]), less than 10 nM.

For `O=C1CCC(N2C(=O)c3ccc(NC[C@H]4C[C@H](n5nc(C6CC6)c6cnccc65)C4)cc3C2=O)C(=O)N1` (stereo partly drawn) [GS-474, 5-(((trans-3-(3-cyclopropyl-1H-pyrazolo[4,3-c]pyridin-1-yl)cyclobutyl)methyl)amino)-2-(2,6-dioxopiperidin-3-yl)isoindoline-1,3-dione], the IC50 in experiment [1] (setting [3]), in experiment [1] (setting [7]), in experiment [2] (setting [5]) and in experiment [2] (setting [8]) was greater than 1000 nM each time.

For the molecule `O=C1CCC(N2C(=O)c3ccc(NCCC[C@H]4C[C@H](n5cc(-c6cccc(N7CCNCC7)n6)cn5)C4)cc3C2=O)C(=O)N1` (stereo partly drawn) [GS-247, 2-(2,6-Dioxopiperidin-3-yl)-5-((3-(trans-3-(4-(6-(piperazin-1-yl)pyridin-2-yl)-1H-pyrazol-1-yl)cyclobutyl)propyl)amino)isoindoline-1,3-dione], the IC50 in experiment [1] (setting [3]) is 100 to 1000 nM; in experiment [1] (setting [4]), less than 10 nM; in experiment [2] (setting [5]), greater than 1000 nM; in experiment [2] (setting [6]), 10 to 100 nM.

Turning to `CN1CC(Nc2cccc(-c3cn([C@H]4C[C@H](CNc5ccc6c(c5)C(=O)N(C5CCC(=O)NC5=O)C6=O)C4)nc3C3CC3)n2)C1` (stereo partly drawn) [GS-292, 5-(((trans-3-(3-Cyclopropyl-4-(6-((1-methylazetidin-3-yl)amino)pyridin-2-yl)-1H-pyrazol-1-yl)cyclobutyl)methyl)amino)-2-(2,6-dioxopiperidin-3-yl)isoindoline-1,3-dione], the IC50 in experiment [1] (setting [3]), in experiment [1] (setting [4]), in experiment [2] (setting [5]) and in experiment [2] (setting [6]) was greater than 1000 nM throughout.

With `O=C1CCC(N2Cc3cc(CCCCCCn4cc(-c5cnc6ccccc6n5)cn4)ccc3C2=O)C(=O)N1` (stereo not shown) [GS-374, 3-(1-Oxo-5-(6-(4-(quinoxalin-2-yl)-1H-pyrazol-1-yl)hexyl)isoindolin-2-yl)piperidine-2,6-dione], the IC50 in experiment [1] (setting [3]) is 100 to 1000 nM; in experiment [1] (setting [4]), greater than 1000 nM; in experiment [2] (setting [5]), greater than 1000 nM; in experiment [2] (setting [6]), 100 to 1000 nM.

Regarding `CN1CCCC(c2cn([C@H]3C[C@H](CNc4ccc5c(c4)C(=O)N(C4CCC(=O)NC4=O)C5=O)C3)nc2C2CC2)C1` (stereo partly drawn) [GS-472, 5-(((trans-3-(3-cyclopropyl-4-(1-methylpiperidin-3-yl)-1H-pyrazol-1-yl)cyclobutyl)methyl)amino)-2-(2,6-dioxopiperidin-3-yl)isoindoline-1,3-dione], the IC50 in experiment [1] (setting [3]), in experiment [1] (setting [7]), in experiment [2] (setting [5]) and in experiment [2] (setting [8]) was greater than 1000 nM each time.

`O=C1CCC(N2C(=O)c3ccc(NC[C@H]4C[C@H](n5cc(-c6nccc7nccnc67)c(C6CC6)n5)C4)cc3C2=O)C(=O)N1` (stereo partly drawn) [GS-309, 5-(((trans-3-(3-Cyclopropyl-4-(pyrido[3,4-b]pyrazin-5-yl)-1H-pyrazol-1-yl)cyclobutyl)methyl)amino)-2-(2,6-dioxopiperidin-3-yl)isoindoline-1,3-dione]: the IC50 in experiment [1] (setting [3]), in experiment [1] (setting [4]), in experiment [2] (setting [5]) and in experiment [2] (setting [6]) was less than 10 nM throughout.

`Cc1nn([C@H]2C[C@H](CCCNc3ccc4c(c3)C(=O)N(C3CCC(=O)NC3=O)C4=O)C2)cc1-c1cnc2ccccc2n1` (stereo partly drawn) [GS-171, 2-(2,6-Dioxopiperidin-3-yl)-5-((3-(trans-3-(3-methyl-4-(quinoxalin-2-yl)-1H-pyrazol-1-yl)cyclobutyl)propyl)amino)isoindoline-1,3-dione]: the IC50 in experiment [1] (setting [3]) was 10 to 100 nM; in experiment [1] (setting [4]) it was less than 10 nM; in experiment [2] (setting [5]), 10 to 100 nM; in experiment [2] (setting [6]) it was less than 10 nM.

For `CN1CCC(c2cnn([C@H]3C[C@H](CCCNc4ccc5c(c4)C(=O)N(C4CCC(=O)NC4=O)C5=O)C3)c2)CC1` (stereo partly drawn) [GS-435, 2-(2,6-dioxopiperidin-3-yl)-5-((3-(trans-3-(4-(1-methylpiperidin-4-yl)-1H-pyrazol-1-yl)cyclobutyl)propyl)amino)isoindoline-1,3-dione], the IC50 in experiment [1] (setting [3]) is 100 to 1000 nM; in experiment [1] (setting [7]), greater than 1000 nM; in experiment [2] (setting [5]), greater than 1000 nM; in experiment [2] (setting [8]) it was 100 to 1000 nM.

As for `O=C1CCC(N2C(=O)c3ccc(NCCCCCC(=O)N4CCC(c5ccccc5)CC4)cc3C2=O)C(=O)N1` (stereo not shown) [GS-010, 2-(2,6-Dioxopiperidin-3-yl)-5-((6-oxo-6-(4-phenylpiperidin-1-yl)hexyl)amino)isoindoline-1,3-dione], the IC50 in experiment [1] (11 IC50) came to 17 nM; in experiment [1] (11 IC50 gilteritinib), 2.3 nM; in experiment [2] (read-out: MOLM-13 IC50), 3 nM; in experiment [2] (read-out: MOLM-13 IC50 gilteritinib) it was 0.3 nM.

Turning to `O=C1CCC(N2C(=O)c3ccc(NCCC[C@H]4C[C@H](n5cc(-c6cnc7ccc(F)cc7n6)cn5)C4)cc3C2=O)C(=O)N1` (stereo partly drawn) [GS-201, 2-(2,6-Dioxopiperidin-3-yl)-5-((3-(trans-3-(4-(7-fluoroquinoxalin-2-yl)-1H-pyrazol-1-yl)cyclobutyl)propyl)amino)isoindoline-1,3-dione], the IC50 in experiment [1] (setting [3]) fell in the range of 100 to 1000 nM; in experiment [1] (setting [4]), 10 to 100 nM; in experiment [2] (setting [5]), 100 to 1000 nM; in experiment [2] (setting [6]) it was 10 to 100 nM.

For `O=C1CCC(N2C(=O)c3ccc(NC[C@H]4C[C@H](n5cc(-c6ccccn6)c(C6CC6)n5)C4)cc3C2=O)C(=O)N1` (stereo partly drawn) [GS-595, 5-(((trans-3-(3-Cyclopropyl-4-(pyridin-2-yl)-1H-pyrazol-1-yl)cyclobutyl)methyl)amino)-2-(2,6-dioxopiperidin-3-yl)isoindoline-1,3-dione], the IC50 in experiment [1] (setting [3]) fell in the range of 100 to 1000 nM; in experiment [1] (setting [7]) it was 10 to 100 nM; in experiment [2] (setting [5]) it was 100 to 1000 nM; in experiment [2] (setting [8]) it was 10 to 100 nM.

On to `O=C1CCC(N2C(=O)c3ccc(NCCCCCC(=O)N4CCC(n5cc(-c6cnc7cccc(C8CCOCC8)c7n6)cn5)CC4)cc3C2=O)C(=O)N1` (stereo not shown) [GS-043, 2-(2,6-Dioxopiperidin-3-yl)-5-((6-oxo-6-(4-(4-(8-(tetrahydro-2H-pyran-4-yl)quinoxalin-2-yl)-1H-pyrazol-1-yl)piperidin-1-yl)hexyl)amino)isoindoline-1,3-dione], for which the IC50 is 10 to 100 nM in experiment [1] (setting [3]), less than 10 nM in experiment [1] (setting [4]), 10 to 100 nM in experiment [2] (setting [5]) and less than 10 nM in experiment [2] (setting [6]).

With `O=C1CCC(N2C(=O)c3ccc(OCCCCCCn4cc(-c5cnc6ccccc6n5)cn4)cc3C2=O)C(=O)N1` (stereo not shown) [GS-354, 2-(2,6-Dioxopiperidin-3-yl)-5-((6-(4-(quinoxalin-2-yl)-1H-pyrazol-1-yl)hexyl)oxy)isoindoline-1,3-dione], the IC50 in experiment [1] (setting [3]), in experiment [1] (setting [4]), in experiment [2] (setting [5]) and in experiment [2] (setting [6]) was greater than 1000 nM each time.

For `O=C1CCC(N2C(=O)c3ccc(NCCCCCC(=O)N4CCC(n5cc(N6CCCCC6)cn5)CC4)cc3C2=O)C(=O)N1` (stereo not shown) [GS-048, 2-(2,6-Dioxopiperidin-3-yl)-5-((6-oxo-6-(4-(4-(piperidin-1-yl)-1H-pyrazol-1-yl)piperidin-1-yl)hexyl)amino)isoindoline-1,3-dione], the IC50 in experiment [1] (setting [3]) was 10 to 100 nM; in experiment [1] (setting [4]), less than 10 nM; in experiment [2] (setting [5]), 100 to 1000 nM; in experiment [2] (setting [6]), 10 to 100 nM.

In the case of `O=C1CCC(N2Cc3cc(NCCCCCCn4cc(-c5cnc6ccccc6n5)cn4)ccc3C2=O)C(=O)N1` (stereo not shown) [GS-361, 3-(1-Oxo-5-((6-(4-(quinoxalin-2-yl)-1H-pyrazol-1-yl)hexyl)amino)isoindolin-2-yl)piperidine-2,6-dione], the IC50 in experiment [1] (setting [3]) is 100 to 1000 nM; in experiment [1] (setting [4]) it was 10 to 100 nM; in experiment [2] (setting [5]), greater than 1000 nM; in experiment [2] (setting [6]), 10 to 100 nM.
